From patent US9554988B2, “Method for preventing or treating skin tumor” (Galderma Research & Development, priority 2010, dated 2017)
Where two headings read alike, the source gives them in different places.

Legend:
[1] = system: pancreatic cancer cells; details: Shen et al. 2008; cited from earlier work
[2] = system: human tumor epithelial breast cell lines or mouse mammary tumor cell line; details: activation of alpha-adrenoceptors; Vazquez et al. 2006, Bruzzone et al. 2008; cited from earlier work
[3] = system: Albino hairless SKH1-hr mice; details: for Median Week to Tumor (≧1 mm): 40 weeks treatment + 12 weeks observation, time at which one-half of group has one or more qualifying tumors; for Tumor Yield (≧1 mm): average number of tumors per survivor
Protocol: Albino hairless SKH1-hr mice (36/sex/group) were treated for 40 weeks with UVR and brimonidine gel or vehicle according to the design in table 11. […] Topical treatments were performed approximately one hour before UVR on Monday, Wednesday and Friday of each week and approximately one hour after UVR Tuesday and Thursday of each week.

[4] = 0.18% topical + 600 RBU/week UVR

## COC(=O)[C@@H]1[C@H]2C[C@H]3c4[nH]c5ccccc5c4CCN3C[C@@H]2CC[C@@H]1O [yohimbine]
[1]
  Apoptosis of pancreatic cancer cells: induced apoptosis
  Proliferation of pancreatic cancer cells: inhibited the proliferation

## Clc1cccc(Cl)c1N=C1NCCN1 [clonidine]
[2]
  Proliferation of tumor cell lines: enhanced proliferation

## Cc1cccc([C@H](C)c2cnc[nH]2)c1C [dexmedetomidine]
[2]
  Proliferation of tumor cell lines: enhanced proliferation

## Cc1cc(C(C)(C)C)c(O)c(C)c1CC1=NCCN1 [oxymetazoline]
[2]
  Proliferation of tumor cell lines: enhanced proliferation

## Brimonidine tartrate
[3]; [4]
  Reduction of tumor yield (≧1 mm) compared to the vehicle group: 1.7 fold
  Median Week to Tumor (≧1 mm): 48 Week
  Tumor Yield (≧1 mm): 2.40 tumors per survivor
[3]; 1% topical + 600 RBU/week UVR
  Members of the group that acquired one or more qualifying tumors (≧1 mm) within the 52-week study period: less than one-half of the members of the groups acquired one or more qualifying tumors
  Reduction of tumor yield (≧1 mm) compared to the vehicle group: 4.7 fold
  Median Week to Tumor (≧1 mm): >52 Week
  Tumor Yield (≧1 mm): 0.85 tumors per survivor
[3]; 2% topical + 600 RBU/week UVR
  Members of the group that acquired one or more qualifying tumors (≧1 mm) within the 52-week study period: less than one-half of the members of the groups acquired one or more qualifying tumors
  Reduction of tumor yield (≧1 mm) compared to the vehicle group: 8.1 fold
  Median Week to Tumor (≧1 mm): >52 Week
  Tumor Yield (≧1 mm): 0.49 tumors per survivor
[3]; topical 0.18%, 1% and 2% concentrations
  UV-induced skin tumor formation: dose-dependent delay
[3]; with increasing concentration, perceptible, 1 mm, 2 mm, 4 mm tumors, sexes combined
  Sizes of tumors (tumor prevalence, FIG. 1): sizes of tumors were also reduced
